Source: patent US20180171288A1, “METHODS OF TREATING CANCER” (THE UNIVERSITY OF ROCHESTER, priority 2016, published 2018)
Several values for one entry are separate records, joined by “and”; a condition that tells them apart may be missing. Equal entries are not always repeated. Entries after “also recorded” stand apart in the source; their conditions may differ. Where two headings read alike, the source gives them in different places. Values belong to the compound of their own block, whether it stands above or below them.

What was measured:
[1] = tested on: GBM cells; assay: Sensitivity of GBM cells to TMX / cell killing; type: cell-based, human
Description: The cell lines studied represent a range of glioblastoma subtypes and genotypes and generate human glioblastomas when transplanted into the CNS of immune-deficient mice.

[2] = tested on: c-Cbl; assay: c-Cbl phosphorylation in GBM cells; type: cell-based, human
Description: In this approach, cancer cells are treated with a CRA or a DCLTD in the presence or absence of an agent that causes cells to become more oxidized. The status of c-Cbl phosphorylation may be analyzed by any of a number of means well-known to those skilled in the art, including Western blot analysis of cell lysates with an antibody that identifies phosphorylated c-Cbl, for instance at tyrosine residues Y731 or Y771, analysis of cell labeling with such antibodies which may be conjugated with a fluorescent probe that makes them suitable for analysis by fluorescence microscopy, immunohistochemistry or by automated fluorescence analysis of some form, or by CYTOF mass cytometry analysis. The change in phosphorylation status is compared with that seen in untreated cells, in cells treated with the CRA or DCLTD by itself, or that treated with a pro-oxidant by itself.
An example of the ability of DCLTDs to restore the ability of TMX to enhance phosphorylation of c-Cbl via the redox/Fyn/c-Cbl pathway is shown in FIG. 8. […] As predicted if activation was RFC pathway-mediated, such activation was inhibited by N-acetyl-L-cysteine (NAC, a glutathione pro-drug and anti-oxidant), thus confirming that TMX-induced activation of c-Cbl was dependent on the pro-oxidative activities of TMX.

[3] = tested on: GBM cells; assay: Protein levels of direct and indirect c-Cbl targets in GBM cells; type: cell-based, human
Description: Alternatively, restoration of c-Cbl function can be determined by analysis of changes in the levels of direct targets of c-Cbl, with changes in the levels of two or more c-Cbl targets caused by the application of a single therapeutic intervention being an indicator of c-Cbl activation. In such analyses, cells are treated with saline, with the CRA or DCLTD by itself, with a pro-oxidant or with the combination of a CRA or a DCLTD with a pro-oxidant. The ability of treatment with the combined agents to cause greater decreases in the levels of proteins that are direct targets of c-Cbl provides a surrogate indicator of c-Cbl activation.
Six of the 10 compounds remaining were chosen to determine whether they restored the ability of oxidation of cells to cause decreases in levels of a c-Cbl target, an outcome that occurs when c-Cbl is activated via the redox/Fyn/c-Cbl pathway. These compounds indeed restored the ability of pro-oxidative stimulation to cause decreases in the levels of the epidermal growth factor receptor (EGFR), which is a c-Cbl target known to be important in growth of many cancer cells and that is of interest as a potential target in cancer treatment.
There are two groups of such proteins, ones in which the connection to a c-Cbl target can be reasonably surmised based on prior research and ones for which the linkage to c-Cbl is currently unknown. Non-limiting examples of the first category of outcomes are activities of Erk1/2 and Akt, which both are downstream of receptor tyrosine kinases that are targets of c-Cbl. Further non-limiting examples are activity levels of NF-κB and serum response element (SRE), which are activated downstream of Akt and […], respectively.

[4] = tested on: melanoma cells; assay: Sensitivity of melanoma cells to TMX; type: cell-based
[5] = tested on: complex between c-Cbl and Cool-1/βpix; assay: Complex between c-Cbl and Cool-1/βpix in GBM cells (immunoprecipitation, immunoblot); type: cell-based, human
[6] = tested on: Cool-1/βpix; assay: Cool-1/βpix Serine340 phosphorylation (antibody blot / immunostaining); type: cell-based, human; details: anti-phospho-Cool1/βpix antibody
[7] = tested on: OPCs isolated from the developing human central nervous system; assay: Sensitivity of human OPCs to anticancer agents; type: cell-based
Description: This is a particularly difficult problem to solve in the context of cells of the central nervous system, as many of these cells are inherently more sensitive to anticancer agents than are cancer cells themselves. Previous studies have shown that one of the cell types of the brain that is most sensitive to the adverse effects of multiple chemotherapeutic agents are the oligodendrocyte progenitor cells (OPCs) that give rise to the myelin-forming oligodendrocytes of the central nervous system.

[8] = tested on: TMXR MCF-7 cells; assay: Growth and killing of TMXR MCF-7 cells in vitro; type: cell-based, human; details: for vulnerability / resistance of TMXR MCF-7 cells to 4^OH-CPP: 3 μM MPT, 5 μM TMX, 5 μM 4^OH-CPP
[9] = tested on: tamoxifen-resistant luminal breast cancer cells
[10] = tested on: complex between c-Cbl and Cool-1/βpix; details: TMX-resistant luminal breast cancer cells
[11] = tested on: GBM TICs; assay: Tumor generation by GBM cells treated in vitro and transplanted intra-cranially in NSG mice; type: in vivo; details: cells exposed 72 hrs in vitro, four GBM cell lines
Description: After treatment, 500,000 live cells were transplanted intra-cranially in NSG mice. […] In contrast with the effects of MPT+TMX in TICs, treatment with temozolomide (TMZ, the frontline treatment for glioblastoma), had no apparent effects on TICs (FIG. 12D).
Unexpectedly, in light of the partial reduction in levels of Cool-1/βpix, and the similarly partial reduction in levels of proteins important in TIC biology, treatment with DCLTD-based therapies eliminates TICs. […] After treatment, 500,000 live cells were transplanted intra-cranially in NSG mice. […] Thus, treatment with temozolomide had little apparent effect on TIC elimination, in agreement with patient data indicating rapid recurrence of tumor even during the period of temozolomide treatment.
Exposure of GBM cells to the combination of MPT+TMX led to the apparently complete elimination of GBM cancer stem cells. GBM cells from four different cell lines were exposed to MPT+TMX combination for 72 hrs in vitro, after which 500,000 live cells were transplanted intra-cranially in NSG mice.

[12] = tested on: parental MCF-7 cells; type: cell-based, human
[13] = tested on: tumor growth; details: in combination with TMX; cited from earlier work
[14] = tested on: hGBM27; assay: Intracranial xenograft, hGBM27; type: in vivo, NSG mice
[15] = tested on: hGBM10; assay: Intracranial xenograft, hGBM10; type: in vivo, NSG mice
[16] = tested on: human GBM cells; assay: Established intracranial human GBM xenografts in NSG mice (cohorts together)
[17] = tested on: human TMXR MCF7 cells; assay: TMXR MCF7 mammary fat pad xenograft in NSG mice; details: mouse, in vivo
[18] = tested on: MDA-MB-231 cells; assay: Sensitivity of MDA-MB-231 BLBC cells to TMX; type: cell-based
Description: Sertraline and mefloquine both were identified in screens on MDA-MB-231 BLBC cells, in which c-Cbl is inhibited in a Cdc42-dependent manner.

Compound: C=C(NC(=O)C(=C)NC(=O)c1csc(C2=N[C@@H]3c4csc(n4)[C@H]4NC(=O)c5csc(n5)[C@H]([C@](C)(O)[C@@H](C)O)NC(=O)[C@H]5CSC(=N5)/C(=C/C)NC(=O)[C@H]([C@@H](C)O)NC(=O)c5csc(n5)[C@]3(CC2)NC(=O)[C@H](C)NC(=O)C(=C)NC(=O)[C@H](C)NC(=O)[C@H]([C@@H](C)CC)N[C@@H]2C=Cc3c([C@H](C)O)cc(nc3[C@H]2O)C(=O)O[C@@H]4C)n1)C(N)=O [thiostrepton]
- sensitivity of GBM cells to TMX [1]: does not increase sensitivity to TMX as potently as does MPT
- c-Cbl phosphorylation [2]: not associated with a notable increase in c-Cbl phosphorylation

- sensitivity of OPCs to TMX [7]: did not increase the sensitivity
Compound: CNCCCC12CCC(c3ccccc31)c1ccccc12 [MPT, maprotiline]
- levels of Cool-1/βpix [3]: decreases levels of the inhibitory protein Cool-1/βpix
- levels of the c-Cbl targets EGFR, Notch-1, β-catenin and PDGFRα [3]: decreases were less marked
- sensitivity of GBM cells to TMX [1]: enhanced the sensitivity of GBM cells; also recorded: increase in tamoxifen sensitivity
- sensitivity of melanoma cells to TMX [4]: increased the sensitivity of melanoma cells to TMX
- c-Cbl phosphorylation [2]: enabled TMX-induced c-Cbl phosphorylation
- levels of the complex between c-Cbl and Cool-1/βpix [5]: virtually complete elimination of complexes; also recorded: marked reductions in levels of the complex
- Cool-1/βpix phosphorylation on Serine340 [6]: decreases the level of staining; also recorded: causes a decrease in levels of Cool-1/βpix phosphorylation
- sensitivity of OPCs to temozolomide [7]: does not increase the sensitivity of OPCs to temozolomide
- vulnerability / resistance of TMXR MCF-7 cells to 4^OH-CPP [8]: only slightly increased vulnerability to 4^OH-CPP
- tamoxifen sensitivity of tamoxifen-resistant luminal breast cancer cells [9]: increase in tamoxifen sensitivity
- levels of the complex between c-Cbl and Cool-1/βpix [10]: causes a decrease in levels of the complex

Compound: Cc1cccc(CN2CCN(C(c3ccccc3)c3ccc(Cl)cc3)CC2)c1 (stereo not shown) [meclizine]
- sensitivity of GBM cells to TMX [1]: increased the vulnerabilty of GBM cells to TMX

Compound: CC/C(=C(\c1ccccc1)c1ccc(OCCN(C)C)cc1)c1ccccc1 [TMX, tamoxifen]
- levels of FoxM1, Sox2, HSF-1 and HSP70 [3]: does not have the above effects
- c-Cbl phosphorylation [2]: alone was not sufficient to activate c-Cbl
- tumor generation after transplant of 500,000 live treated cells [11]: generated tumors within three weeks
- effect on cell division and survival [12]: cytostatic but not lethal
- cell division in the presence of TMX ([8]; 1 μM TMX, TMXR cells): continue to divide
- vulnerability / resistance of TMXR MCF-7 cells to 4^OH-CPP [8]: only slightly increased vulnerability to 4^OH-CPP

Compound: OCCNC1CCCc2c1[nH]c1ccc(-c3ccccc3)cc21 (stereo not shown) [CASIN]
- sensitivity of OPCs to TMX [7]: does not increase the vulnerability of OPCs to TMX

Compound: CN(C)CCC=C1c2ccccc2CCc2ccccc21 [amitryptiline]
- sensitivity of GBM cells to TMX [1]: none of them were as effective as MPT

Compound: ML141
- suppression of tumor growth [13]: only provided partial suppression of tumor growth

Compound: CNCCC(Oc1ccc(C(F)(F)F)cc1)c1ccccc1 (stereo not shown) [fluoxetine]
- sensitivity of GBM cells to TMX [1]: none of them were as effective as MPT

Compound: OC(c1cc(C(F)(F)F)nc2c(C(F)(F)F)cccc12)C1CCCCN1 (stereo not shown) [mefloquine]
- sensitivity of melanoma cells to TMX [4]: increased the sensitivity of melanoma cells to TMX

Compound: Cn1nnc2c(C(N)=O)ncn2c1=O [TMZ, temozolomide]
- week of treatment in which tumor size began to increase ([14]; hGBM27): 4 week
- increase in tumor size (photon flux) at 12 weeks ([14]; hGBM27, 3 weeks after cessation of treatment): > 5000 fold
- increase in tumor size (photon flux) at the end of 9 weeks of treatment ([14]; hGBM27, oral gavage 5 days on/2 days off): > 100 fold
- median survival ([14]; hGBM27 cohort): 11.5 weeks
- increase in tumor size at 12 weeks ([15]; hGBM10): > 500 fold and 500 fold
- median survival ([15]; hGBM10 cohort): 12 weeks
- increase in lifespan over saline-treated mice ([16]; median 9 week survival of saline-treated mice): 30%
- time lived after treatment was stopped ([16]; mouse, in vivo): 4-5 weeks and 2-6 weeks

Compound: O=P1(N(CCCl)CCCl)NCCCO1 (stereo not shown) [CPP, cyclophosphamide]
- tumor growth [17]: already have initiated tumor growth midway through treatment

Compound: CN[C@H]1CC[C@@H](c2ccc(Cl)c(Cl)c2)c2ccccc21 [sertraline]
- sensitivity of MDA-MB-231 BLBC cells to TMX [18]: increased the sensitivity of these cells to TMX; also recorded: increase in tamoxifen sensitivity
- sensitivity of OPCs to TMX [7]: does not increase sensitivity of OPCs to TMX
